{"source": "patent US20140328898A1", "about": "“Nano-Liposomal Formulations and Methods of Use” (CHILDREN'S NATIONAL MEDICAL CENTER, priority 2013, published 2014)", "assay": "Size-dependent transdermal penetration of PEGylated and anionic liposomes through the stratum corneum of porcine ear tissue (Example 2), DiI fluorescence intensity profiles", "assay_type": "in vitro ADME, Yorkshire piglets", "conditions": "free dye applied to the skin in liposome-free buffer (control)", "description": "For PEGylated liposomes, dimyristoylphosphatidylcholine (DMPC), cholesterol, and dipalmitoylphosphatidylethanolamine-PEG 2000 (PEG2000-PE) (Avanti Polar Lipids Inc., Alabaster, Ala.) were combined in chloroform (Mallinckrodt Baker Inc., Phillipsburg, N.J.) at a molar ratio of 70:25:5. For anionic liposomes, DMPC, cholesterol (both from Avanti), and anionic surfactant dihexadecyl phosphate (DCP) (Sigma Aldrich, St. Louis, Mo.) were mixed in chloroform (Mallinckrodt Baker Inc.) at a molar ratio of 50:40:10. The lipid mixtures were prepared in glass scintillation vials then stored in a vacuum desiccator for at least 24 hours for complete solvent removal. The desiccated lipid mixtures were re-dissolved in anhydrous ethanol (Sigma Aldrich) for a total lipid concentration of 40 mM. To assist in fluorescent imaging, a lipophilic membrane dye, 1,1′-dioctadecyl-3,3,3′,3′-tetramethylindocarbocyanine perchlorate (DiI-C18; DiI) (Life Technologies, Carlsbad, Calif.) was included into the lipid mixtures (1 wt %). […]\nThe microfluidic-generated liposomes contained lipophilic DiI in their bilayers and hydrophilic SF in their cores to enable fluorescence imaging of tissue penetration depth. […]"}
{"compound": "O=C([O-])c1ccccc1-c1c2ccc(=O)cc-2oc2cc([O-])ccc12.[Na+].[Na+]", "note": "[free SF dye, sodium fluorescein salt]", "values": [{"measurement": "SF dye penetration beyond the SC (in words)", "value": "no penetration beyond the SC was observed"}]}
